From US20250353873A1, “COMPOUNDS AND METHODS FOR MODULATING APOE EXPRESSION” (Ionis Pharmaceuticals, Inc., priority 2024, published 2025)
Strand notation (5' to 3'): a small letter for the sugar, then the base; units joined by * are phosphorothioate-linked, units joined directly phosphodiester-linked; [ ] holds rarer units or linkages, { } end groups; capitals alone tell only the bases. [ms] = mesyl phosphoramidate linkage; e = 2'-O-(2-methoxyethyl) (MOE); [5mC] = 5-methylcytosine; d = 2'-deoxy (DNA)

System: human APOE RNA
Assay: Activity in APOE C57BL/6NTac-Apoeem7250 knock-in mice, single ICV bolus, 16 weeks (Example 12)
Assay type: in vivo
Conditions: single ICV bolus 300 μg, 16 weeks post treatment, normalized to mouse Ppia
Description: Modified oligonucleotides described above were tested in the APOE C57BL/6NTac-Apoeem7250 knock-in mouse model described above.
APOE C57BL/6NTac-Apoeem7250 knock-in mice were divided into groups of 3-4 mice each. Each mouse received a single intracerebroventricular (ICV) bolus of 300 μg of modified oligonucleotide. A group of 4 mice received a single ICV bolus with PBS as a negative control.
Sixteen weeks post treatment, mice were sacrificed and RNA was extracted from cortical brain tissue and spinal cord for quantitative real-time RT-PCR analysis of RNA expression of APOE using primer probe set RTS3073 (described herein above). APOE RNA levels were normalized to mouse Ppia. Mouse Ppia was amplified using primer probe set m_cyclo24 (described herein above). Results are presented as percent human APOE RNA relative to the amount of human APOE RNA in PBS treated animals, (% control). Each experiment is identified in separate tables below.

Substance | APOE RNA (% control) Cortex [% control] | APOE RNA (% control) Spinal Cord [% control]
1693077: 6-10-4 MOE gapmer TTGGTGAATCTTTATTAAAC, linkages sosssszzszssszssoss (eT*eTeG*eG*eT*eG*dA[ms]dA[ms]dT*d[5mC][ms]dT*dT*dT*dA[ms]dT*dT*eAeA*eA*e[5mC]) [compound 1693077] | 98 | 76
1693063: 5-10-5 MOE gapmer TTGGTGAATCTTTATTAAAC, linkages ssssszzzsssszzsssss (antisense eT*eT*eG*eG*eT*dG[ms]dA[ms]dA[ms]dT*d[5mC]*dT*dT*dT[ms]dA[ms]dT*eT*eA*eA*eA*e[5mC]) [compound 1693063] | 97 | 87
1693072: 5-10-5 MOE gapmer ACTTGGTGAATCTTTATTAA, linkages ssssosszzzzzsssssss (eA*e[5mC]*eT*eT*eGdG*dT*dG[ms]dA[ms]dA[ms]dT[ms]d[5mC][ms]dT*dT*dT*eA*eT*eT*eA*eA) [compound 1693072] | 82 | 61
1693057: 5-10-5 MOE gapmer TTGGTGAATCTTTATTAAAC, linkages ssssszzzssssszsosss (antisense eT*eT*eG*eG*eT*dG[ms]dA[ms]dA[ms]dT*d[5mC]*dT*dT*dT*dA[ms]dT*eTeA*eA*eA*e[5mC]) [compound 1693057] | 125 | 101
1693046: 5-10-5 MOE gapmer CTTGGTGAATCTTTATTAAA, linkages ssssszzzzzsssssssss (antisense e[5mC]*eT*eT*eG*eG*dT[ms]dG[ms]dA[ms]dA[ms]dT[ms]d[5mC]*dT*dT*dT*dA*eT*eT*eA*eA*eA) [compound 1693046] | 106 | 80
1693139: 6-10-4 MOE gapmer ACTTGGTGAATCTTTATTAA, linkages ssssssszzzssssszsss (eA*e[5mC]*eT*eT*eG*eG*dT*dG[ms]dA[ms]dA[ms]dT*d[5mC]*dT*dT*dT*dA[ms]eT*eT*eA*eA) [compound 1693139] | 92 | 97
1693100: 6-10-4 MOE gapmer CTTGGTGAATCTTTATTAAA, linkages sssssszzzssssszsoss (e[5mC]*eT*eT*eG*eG*eT*dG[ms]dA[ms]dA[ms]dT*d[5mC]*dT*dT*dT*dA[ms]dT*eTeA*eA*eA) [compound 1693100] | 87 | 51
1693070: 5-10-5 MOE gapmer ACTTGGTGAATCTTTATTAA, linkages ssssssszzzszsssosss (antisense eA*e[5mC]*eT*eT*eG*dG*dT*dG[ms]dA[ms]dA[ms]dT*d[5mC][ms]dT*dT*dT*eAeT*eT*eA*eA) [compound 1693070] | 86 | 76
1693142: 6-10-4 MOE gapmer ACTTGGTGAATCTTTATTAA, linkages sssoosszzzssssszsss (eA*e[5mC]*eT*eTeGeG*dT*dG[ms]dA[ms]dA[ms]dT*d[5mC]*dT*dT*dT*dA[ms]eT*eT*eA*eA) [compound 1693142] | 98 | 92
1693069: 5-10-5 MOE gapmer ACTTGGTGAATCTTTATTAA, linkages ssssosszzzszsssssss (antisense eA*e[5mC]*eT*eT*eGdG*dT*dG[ms]dA[ms]dA[ms]dT*d[5mC][ms]dT*dT*dT*eA*eT*eT*eA*eA) [compound 1693069] | 78 | 66
1693058: 5-10-5 MOE gapmer TTGGTGAATCTTTATTAAAC, linkages sssoszzzssssszsosss (antisense eT*eT*eG*eGeT*dG[ms]dA[ms]dA[ms]dT*d[5mC]*dT*dT*dT*dA[ms]dT*eTeA*eA*eA*e[5mC]) [compound 1693058] | 113 | 80
1693071: 5-10-5 MOE gapmer ACTTGGTGAATCTTTATTAA, linkages ssssssszzzzzsssosss (antisense eA*e[5mC]*eT*eT*eG*dG*dT*dG[ms]dA[ms]dA[ms]dT[ms]d[5mC][ms]dT*dT*dT*eAeT*eT*eA*eA) [compound 1693071] | 68 | 66
1693055: 5-10-5 MOE gapmer TTGGTGAATCTTTATTAAAC, linkages sososzzzsssssssosss (antisense eT*eTeG*eGeT*dG[ms]dA[ms]dA[ms]dT*d[5mC]*dT*dT*dT*dA*dT*eTeA*eA*eA*e[5mC]) [compound 1693055] | 95 | 67
1693075: 5-10-5 MOE gapmer ACTTGGTGAATCTTTATTAA, linkages ssssssszzzzzsssssss (eA*e[5mC]*eT*eT*eG*dG*dT*dG[ms]dA[ms]dA[ms]dT[ms]d[5mC][ms]dT*dT*dT*eA*eT*eT*eA*eA) [compound 1693075] | 87 | 64
1693138: 6-10-4 MOE gapmer CTTGGTGAATCTTTATTAAA, linkages sssssozzzsssszzsoss (e[5mC]*eT*eT*eG*eG*eTdG[ms]dA[ms]dA[ms]dT*d[5mC]*dT*dT*dT[ms]dA[ms]dT*eTeA*eA*eA) [compound 1693138] | 90 | 85
1693074: 5-10-5 MOE gapmer ACTTGGTGAATCTTTATTAA, linkages ssosssszzzzzsssssss (eA*e[5mC]*eTeT*eG*dG*dT*dG[ms]dA[ms]dA[ms]dT[ms]d[5mC][ms]dT*dT*dT*eA*eT*eT*eA*eA) [compound 1693074] | 84 | 71
1693079: 6-10-4 MOE gapmer TTGGTGAATCTTTATTAAAC, linkages sssosszzszssszssoss (eT*eT*eG*eGeT*eG*dA[ms]dA[ms]dT*d[5mC][ms]dT*dT*dT*dA[ms]dT*dT*eAeA*eA*e[5mC]) [compound 1693079] | 93 | 106
1693080: 6-10-4 MOE gapmer TTGGTGAATCTTTATTAAAC, linkages ssssoszzszssszssoss (eT*eT*eG*eG*eTeG*dA[ms]dA[ms]dT*d[5mC][ms]dT*dT*dT*dA[ms]dT*dT*eAeA*eA*e[5mC]) [compound 1693080] | 99 | 88
1693066: 5-10-5 MOE gapmer ACTTGGTGAATCTTTATTAA, linkages sssssssszzsssssooss (antisense eA*e[5mC]*eT*eT*eG*dG*dT*dG*dA[ms]dA[ms]dT*d[5mC]*dT*dT*dT*eAeTeT*eA*eA) [compound 1693066] | 88 | 73
1693067: 5-10-5 MOE gapmer ACTTGGTGAATCTTTATTAA, linkages ssosssszzzszsssssss (antisense eA*e[5mC]*eTeT*eG*dG*dT*dG[ms]dA[ms]dA[ms]dT*d[5mC][ms]dT*dT*dT*eA*eT*eT*eA*eA) [compound 1693067] | 97 | 162
1693064: 5-10-5 MOE gapmer ACTTGGTGAATCTTTATTAA, linkages soossssszzsssssosss (antisense eA*e[5mC]eTeT*eG*dG*dT*dG*dA[ms]dA[ms]dT*d[5mC]*dT*dT*dT*eAeT*eT*eA*eA) [compound 1693064] | 83 | 48
1693065: 5-10-5 MOE gapmer ACTTGGTGAATCTTTATTAA, linkages soossssszzsssssssss (antisense eA*e[5mC]eTeT*eG*dG*dT*dG*dA[ms]dA[ms]dT*d[5mC]*dT*dT*dT*eA*eT*eT*eA*eA) [compound 1693065] | 82 | 46
1693078: 6-10-4 MOE gapmer TTGGTGAATCTTTATTAAAC, linkages ssossszzszssszssoss (eT*eT*eGeG*eT*eG*dA[ms]dA[ms]dT*d[5mC][ms]dT*dT*dT*dA[ms]dT*dT*eAeA*eA*e[5mC]) [compound 1693078] | 98 | 99
1693143: 6-10-4 MOE gapmer ACTTGGTGAATCTTTATTAA, linkages ssossszzzssssszsss (as printed) (sugars from the 5' end e6 d10 e4, all C 5-methyl, backbone not given here; further chemistry not fully specified) [compound 1693143] | 76 | 64
